Results published in ChEMBL document CHEMBL4813980, “A novel class of selective non-nucleoside inhibitors of human DNA methyltransferase 3A” (Bioorg Med Chem Lett, 2021).
Calls of active or inactive are those of the source. No cut-off for these calls is given here.

Tests used:
[1] = molecular target: T1, DNA (cytosine-5)-methyltransferase 3A (Homo sapiens, UniProt Q9Y6K1); assay: Uncompetitive inhibition of human DNMT3A using poly dl-dC as substrate
[2] = Inhibition of bacterial DNA cytosine methyltransferase M.SssI up to 60 uM preincubated for 15 mins followed by DNA addition measured after 30 mins relative to control; settings: dose microM <=60, time 15.0 min
[3] = molecular target: DNA (cytosine-5)-methyltransferase 1 (Homo sapiens) (UniProt P26358); assay: Inhibition of DNMT1 (unknown origin) up to 6 uM preincubated for 15 mins followed by DNA addition measured after 30 mins relative to control; settings: dose microM <=6, time 15.0 min
Sequence of DNA (cytosine-5)-methyltransferase 1 (Homo sapiens) (P26358 whole entry, the tested form may be a part): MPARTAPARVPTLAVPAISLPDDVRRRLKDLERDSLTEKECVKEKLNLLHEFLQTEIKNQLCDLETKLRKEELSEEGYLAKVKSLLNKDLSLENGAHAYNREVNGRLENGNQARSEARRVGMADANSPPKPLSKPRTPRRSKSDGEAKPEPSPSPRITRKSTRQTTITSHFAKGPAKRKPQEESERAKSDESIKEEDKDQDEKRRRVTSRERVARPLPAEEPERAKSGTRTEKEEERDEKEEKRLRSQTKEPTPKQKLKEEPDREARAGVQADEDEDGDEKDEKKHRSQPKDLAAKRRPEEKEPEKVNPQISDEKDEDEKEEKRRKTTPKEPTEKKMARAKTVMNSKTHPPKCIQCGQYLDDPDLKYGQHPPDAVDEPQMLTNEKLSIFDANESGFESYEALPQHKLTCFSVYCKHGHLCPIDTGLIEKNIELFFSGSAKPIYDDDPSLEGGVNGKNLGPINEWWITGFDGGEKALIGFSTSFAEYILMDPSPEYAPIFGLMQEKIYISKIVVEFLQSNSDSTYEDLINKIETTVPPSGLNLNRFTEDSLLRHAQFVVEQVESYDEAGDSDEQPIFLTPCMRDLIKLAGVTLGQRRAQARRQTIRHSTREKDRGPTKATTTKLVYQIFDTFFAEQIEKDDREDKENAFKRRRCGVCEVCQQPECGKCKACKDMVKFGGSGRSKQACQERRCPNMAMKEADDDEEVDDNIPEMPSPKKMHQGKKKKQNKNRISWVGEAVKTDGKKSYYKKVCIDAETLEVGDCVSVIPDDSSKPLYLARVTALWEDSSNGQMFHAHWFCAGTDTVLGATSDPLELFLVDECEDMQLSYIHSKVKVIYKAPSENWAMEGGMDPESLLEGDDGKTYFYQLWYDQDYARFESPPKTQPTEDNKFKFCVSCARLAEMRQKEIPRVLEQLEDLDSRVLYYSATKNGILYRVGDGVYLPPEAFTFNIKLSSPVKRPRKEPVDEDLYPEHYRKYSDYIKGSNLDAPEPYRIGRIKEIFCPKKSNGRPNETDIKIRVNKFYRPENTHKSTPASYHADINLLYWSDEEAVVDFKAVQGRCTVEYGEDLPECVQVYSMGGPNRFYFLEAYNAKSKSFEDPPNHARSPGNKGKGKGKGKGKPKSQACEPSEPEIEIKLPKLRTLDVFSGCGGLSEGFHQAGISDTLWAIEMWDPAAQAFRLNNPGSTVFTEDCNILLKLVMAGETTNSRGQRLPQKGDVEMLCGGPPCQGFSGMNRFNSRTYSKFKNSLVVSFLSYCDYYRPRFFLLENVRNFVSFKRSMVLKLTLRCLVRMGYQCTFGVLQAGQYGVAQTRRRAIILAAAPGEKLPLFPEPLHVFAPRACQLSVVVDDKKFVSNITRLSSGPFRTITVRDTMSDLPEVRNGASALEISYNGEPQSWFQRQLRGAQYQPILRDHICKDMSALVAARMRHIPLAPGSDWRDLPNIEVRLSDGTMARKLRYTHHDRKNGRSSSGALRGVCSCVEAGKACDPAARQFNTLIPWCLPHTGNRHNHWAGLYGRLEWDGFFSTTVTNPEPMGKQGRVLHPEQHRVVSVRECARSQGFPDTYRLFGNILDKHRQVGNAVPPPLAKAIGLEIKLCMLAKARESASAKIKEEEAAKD

[4] = molecular target: T1, DNA (cytosine-5)-methyltransferase 3A; assay: Binding affinity to human DNMT3A catalytic domain assessed as inhibition of enzyme-mediated DNA methylation using poly dl-dC as substrate incubated for 30 mins
[5] = molecular target: T1, DNA (cytosine-5)-methyltransferase 3A; assay: Binding affinity to human DNMT3A catalytic domain assessed as inhibition of enzyme-mediated DNA methylation using 3H-AdoMet as substrate incubated for 30 mins
[6] = molecular target: T1, DNA (cytosine-5)-methyltransferase 3A; assay: Inhibition of human DNMT3A (628 to 912 residues) preincubated for 15 mins followed by DNA addition measured after 30 mins relative to control
[7] = molecular target: T1, DNA (cytosine-5)-methyltransferase 3A; assay: Uncompetitive inhibition of human DNMT3A using AdoMet as substrate
[8] = molecular target: T1, DNA (cytosine-5)-methyltransferase 3A; assay: Mixed type inhibition of human DNMT3A using AdoMet as substrate
[9] = molecular target: T1, DNA (cytosine-5)-methyltransferase 3A; assay: Mixed type inhibition of human DNMT3A using poly dl-dC as substrate

T1 sequence (Q9Y6K1 whole entry, looked up): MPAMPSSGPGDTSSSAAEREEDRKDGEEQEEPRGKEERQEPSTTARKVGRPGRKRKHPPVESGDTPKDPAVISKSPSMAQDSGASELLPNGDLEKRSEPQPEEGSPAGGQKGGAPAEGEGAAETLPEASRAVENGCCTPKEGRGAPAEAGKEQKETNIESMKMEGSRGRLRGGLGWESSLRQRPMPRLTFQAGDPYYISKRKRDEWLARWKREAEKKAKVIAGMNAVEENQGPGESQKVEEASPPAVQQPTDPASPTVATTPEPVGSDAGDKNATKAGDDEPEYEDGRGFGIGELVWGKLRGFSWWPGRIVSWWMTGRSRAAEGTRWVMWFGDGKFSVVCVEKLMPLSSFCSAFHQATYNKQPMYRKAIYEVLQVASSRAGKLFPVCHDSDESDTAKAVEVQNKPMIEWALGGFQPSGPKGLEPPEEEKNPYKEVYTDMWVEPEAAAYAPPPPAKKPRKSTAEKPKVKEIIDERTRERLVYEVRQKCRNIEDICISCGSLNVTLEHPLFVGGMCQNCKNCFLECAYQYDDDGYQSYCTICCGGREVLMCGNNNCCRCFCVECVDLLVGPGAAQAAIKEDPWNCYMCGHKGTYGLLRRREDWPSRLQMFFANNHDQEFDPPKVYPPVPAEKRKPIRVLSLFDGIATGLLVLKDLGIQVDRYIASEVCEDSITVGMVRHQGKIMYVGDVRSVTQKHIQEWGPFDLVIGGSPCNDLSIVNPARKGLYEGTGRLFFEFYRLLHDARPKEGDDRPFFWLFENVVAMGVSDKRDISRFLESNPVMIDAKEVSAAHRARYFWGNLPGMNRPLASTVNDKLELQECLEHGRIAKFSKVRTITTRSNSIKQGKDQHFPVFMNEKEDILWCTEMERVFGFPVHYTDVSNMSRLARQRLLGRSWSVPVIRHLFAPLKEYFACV

**Q.** With COc1ccc(C2=NN(C3CCCCCC3)C(=O)[C@@H]3CC=CC[C@H]23)cc1OCCCCOc1ccc(-c2nnn[nH]2)cc1 as the molecule, how does the Ki [1] read?
**A.** 11.4 µM

**Q.** What about the inhibition [2] of the same molecule?
**A.** inactive

**Q.** And the inhibition [3]?
**A.** Active

**Q.** What about the Ki [4] of the same molecule?
**A.** 16.1 µM

**Q.** What about the Ki [5] of the same molecule?
**A.** 13.8 µM

**Q.** What about the inhibition [6] of the same molecule?
**A.** Active

**Q.** What about the Ki [7] of the same molecule?
**A.** 9.16 µM

**Q.** For COc1ccc(C2=NN(C3CCCCCC3)C(=O)C2(C)C)cc1OCCCCOc1ccc(-c2nn[nH]n2)cc1, which inhibition [2] is on record?
**A.** inactive

**Q.** And the inhibition [3]?
**A.** Active

**Q.** What about the inhibition [6] of the same molecule?
**A.** Active

**Q.** For COc1ccc(C2=NN(C3CCCCCC3)C(=O)C2(C)C)cc1OCCCCOc1ccc(-c2nnn[nH]2)cc1, which Ki [4] is on record?
**A.** 21.6 µM

**Q.** And the Ki [8]?
**A.** 3.7 µM

**Q.** And the Ki [5]?
**A.** 5.03 µM

**Q.** And the Ki [9]?
**A.** 12.6 µM
